Reference: ChEMBL document CHEMBL5329189, “Design, synthesis, and anti-hepatocellular carcinoma of thiopyrimidine/chalcone hybrids as dual STAT3/STAT5 inhibitors” (RSC Med Chem, 2023)
One block for each molecule: values may come before it. Calls of active or inactive are those of the source. The rule behind the calls is not given here.

Assays:
Huh-7 [1] = test: Antitumor activity against human Huh7 cells measured after 48 hrs by MTT assay; type: functional, cell-based; conditions: Huh-7, 48 h
HepG2 [2] = test: Antitumor activity against human HepG2 cells measured after 48 hrs by MTT assay; type: functional, cell-based; conditions: HepG2, 48 h
[3] = molecular target: T1, Signal transducer and activator of transcription 5A (Homo sapiens) (UniProt P42229); test: Inhibition of STAT5a (unknown origin) using TMB as substrate assessed as reduction in phosphorylated STAT5a at Y694 residue incubated for 1.5 hrs by ELISA (reference value: 11.15 +/- 0.91 ng/ml)
T1 sequence (whole entry): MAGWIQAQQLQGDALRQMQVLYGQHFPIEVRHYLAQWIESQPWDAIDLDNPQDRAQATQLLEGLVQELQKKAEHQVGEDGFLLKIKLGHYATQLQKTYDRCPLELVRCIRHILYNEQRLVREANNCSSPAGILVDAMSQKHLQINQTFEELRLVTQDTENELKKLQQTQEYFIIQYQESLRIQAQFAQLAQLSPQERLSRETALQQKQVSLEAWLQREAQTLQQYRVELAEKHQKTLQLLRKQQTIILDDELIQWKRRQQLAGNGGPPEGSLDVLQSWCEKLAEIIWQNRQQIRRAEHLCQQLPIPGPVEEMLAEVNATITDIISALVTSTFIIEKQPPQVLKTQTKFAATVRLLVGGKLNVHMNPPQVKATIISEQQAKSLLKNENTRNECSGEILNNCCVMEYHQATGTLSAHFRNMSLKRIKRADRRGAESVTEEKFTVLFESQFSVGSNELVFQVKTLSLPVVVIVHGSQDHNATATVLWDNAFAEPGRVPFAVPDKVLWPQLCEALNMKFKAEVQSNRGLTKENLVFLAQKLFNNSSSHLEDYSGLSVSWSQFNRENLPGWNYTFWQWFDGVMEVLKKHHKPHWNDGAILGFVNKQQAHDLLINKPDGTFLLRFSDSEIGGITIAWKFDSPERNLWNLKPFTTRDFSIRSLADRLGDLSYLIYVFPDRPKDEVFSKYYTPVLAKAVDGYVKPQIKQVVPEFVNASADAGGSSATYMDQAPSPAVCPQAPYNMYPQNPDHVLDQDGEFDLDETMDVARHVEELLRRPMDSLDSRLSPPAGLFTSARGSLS

[4] = Cytotoxicity against THLE-2 cells measured after 48 hrs by MTT assay; type: toxicity, cell-based; conditions: human
[5] = molecular target: Signal transducer and activator of transcription 3 (Homo sapiens) (UniProt P40763); test: Inhibition of STAT3 (unknown origin) using TMB as substrate assessed as reduction in phosphorylated STAT3 at Y705 residue incubated for 5 hrs by ELISA (reference value: 14.53 +/- 0.4 ng/ml)
Sequence of Signal transducer and activator of transcription 3 (Homo sapiens) (P40763 whole entry): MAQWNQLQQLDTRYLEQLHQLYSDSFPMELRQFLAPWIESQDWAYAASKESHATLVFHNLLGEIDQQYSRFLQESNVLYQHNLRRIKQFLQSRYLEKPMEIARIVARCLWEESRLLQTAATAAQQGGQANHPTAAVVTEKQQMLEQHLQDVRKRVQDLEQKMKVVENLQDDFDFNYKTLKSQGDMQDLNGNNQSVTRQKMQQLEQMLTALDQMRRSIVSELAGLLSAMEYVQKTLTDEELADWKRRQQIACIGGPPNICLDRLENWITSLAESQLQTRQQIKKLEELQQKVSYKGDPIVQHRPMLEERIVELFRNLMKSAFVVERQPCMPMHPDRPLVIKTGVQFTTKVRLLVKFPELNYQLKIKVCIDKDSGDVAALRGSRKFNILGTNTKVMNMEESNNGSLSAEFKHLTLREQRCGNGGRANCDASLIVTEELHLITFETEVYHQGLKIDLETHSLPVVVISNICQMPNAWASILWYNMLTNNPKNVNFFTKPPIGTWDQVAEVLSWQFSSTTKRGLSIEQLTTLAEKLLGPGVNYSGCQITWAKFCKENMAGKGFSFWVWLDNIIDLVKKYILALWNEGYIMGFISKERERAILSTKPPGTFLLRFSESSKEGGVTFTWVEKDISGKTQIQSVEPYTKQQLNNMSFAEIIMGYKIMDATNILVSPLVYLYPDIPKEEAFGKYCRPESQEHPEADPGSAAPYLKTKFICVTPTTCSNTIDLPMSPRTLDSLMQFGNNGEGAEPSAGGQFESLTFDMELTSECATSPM

HepG2 [6] = test: Potency index, ratio of doxorubicin IC50 to test compound IC50 for antitumor activity against human HepG2 cells incubated for 48 hrs by MTT assay; type: functional
HepG2 [7] = test: Inhibition of STAT5 phosphorylation at Tyr694 residue in human HepG2 cells incubated for 24 hrs by Western blot analysis; type: cell-based
HepG2 [8] = test: Potency index, ratio of stattic IC50 to test compound IC50 for antitumor activity against human HepG2 cells incubated for 48 hrs by MTT assay; type: functional
[9] = molecular target: Signal transducer and activator of transcription 3 (Homo sapiens) (UniProt P40763); test: Inhibition of STAT3 phosphorylation at Tyr705 residue in human HepG2 cells incubated for 24 hrs by Western blot analysis; type: cell-based
Huh-7 [10] = test: Potency index, ratio of doxorubicin IC50 to test compound IC50 for antitumor activity against human Huh-7 cells incubated for 48 hrs by MTT assay; type: functional
HepG2 [11] = test: Effect on total STAT5 protein level in human HepG2 cells incubated for 24 hrs by Western blot analysis; type: functional, cell-based
[12] = molecular target: T2, Signal transducer and activator of transcription 1-alpha/beta (Homo sapiens) (UniProt P42224); test: Inhibition of STAT1 in human HepG2 cells assessed as reduction in STAT1 phosphorylation at Tyr701 residue incubated for 24 hrs by Western blot analysis; type: cell-based
T2 sequence (whole entry): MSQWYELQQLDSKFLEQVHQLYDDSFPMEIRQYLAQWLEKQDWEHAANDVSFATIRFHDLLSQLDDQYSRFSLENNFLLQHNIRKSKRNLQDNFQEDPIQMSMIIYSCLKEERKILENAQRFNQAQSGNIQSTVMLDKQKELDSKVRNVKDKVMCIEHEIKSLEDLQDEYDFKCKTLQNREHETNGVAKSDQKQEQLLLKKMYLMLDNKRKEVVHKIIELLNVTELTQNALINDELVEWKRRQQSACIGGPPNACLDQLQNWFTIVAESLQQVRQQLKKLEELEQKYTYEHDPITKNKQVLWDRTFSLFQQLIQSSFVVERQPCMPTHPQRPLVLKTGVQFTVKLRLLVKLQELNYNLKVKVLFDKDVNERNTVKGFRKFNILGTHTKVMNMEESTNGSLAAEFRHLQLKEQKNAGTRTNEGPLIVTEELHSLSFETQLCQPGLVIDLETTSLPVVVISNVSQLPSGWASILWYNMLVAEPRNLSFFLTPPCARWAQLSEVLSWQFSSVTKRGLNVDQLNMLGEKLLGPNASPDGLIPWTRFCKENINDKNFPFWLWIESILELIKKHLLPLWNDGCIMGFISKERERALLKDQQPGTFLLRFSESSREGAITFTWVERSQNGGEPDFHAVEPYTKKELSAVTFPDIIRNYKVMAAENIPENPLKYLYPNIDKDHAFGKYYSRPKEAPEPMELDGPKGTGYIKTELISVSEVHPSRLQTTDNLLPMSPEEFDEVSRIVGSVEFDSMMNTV

[13] = molecular target: T1, Signal transducer and activator of transcription 5A (Homo sapiens); test: Inhibition of STAT5a (unknown origin) using TMB as substrate assessed as reduction in phosphorylated STAT5a at Y694 residue by measuring fold change at 10 uM incubated for 1.5 hrs by ELISA relative to control
Huh-7 [14] = test: Potency index, ratio of static IC50 to test compound IC50 for antitumor activity against human Huh-7 cells incubated for 48 hrs by MTT assay; type: functional
[15] = Selectivity index, ratio of IC50 for cytotoxicity against THLE-2 cells to IC50 for antitumor activity against human Huh-7 cells; type: cell-based; conditions: THLE-2 cells versus Huh-7 cells, read-out: Ratio IC50
[16] = molecular target: T1, Signal transducer and activator of transcription 5A (Homo sapiens); test: Inhibition of STAT5a (unknown origin) using TMB as substrate assessed as reduction in phosphorylated STAT5a at Y694 residue at 10 uM incubated for 1.5 hrs by ELISA (reference value: 11.15 +/- 0.91 ng/ml)
[17] = molecular target: Signal transducer and activator of transcription 3 (Homo sapiens) (UniProt P40763); test: Inhibition of STAT3 (unknown origin) using TMB as substrate assessed as reduction in phosphorylated STAT3 at Y705 residue at 10 uM incubated for 5 hrs by ELISA (reference value: 14.53 +/- 0.4 ng/ml)
[18] = Selectivity index, ratio of IC50 for cytotoxicity against THLE-2 cells to IC50 for antitumor activity against human HepG2 cells; type: cell-based; conditions: THLE-2 cells versus HepG2 cells, read-out: Ratio IC50
[19] = molecular target: Signal transducer and activator of transcription 3 (Homo sapiens) (UniProt P40763); test: Inhibition of STAT3 (unknown origin) using TMB as substrate assessed as reduction in phosphorylated STAT3 at Y705 residue by measuring fold change at 10 uM incubated for 5 hrs by ELISA relative to control
HepG2 [20] = test: Effect on total STAT3 protein level in human HepG2 cells incubated for 24 hrs by Western blot analysis; type: functional, cell-based

SMILES: COc1cccc2c1C(=O)c1c(O)c3c(c(O)c1C2=O)C[C@@](O)(C(=O)CO)C[C@@H]3O[C@H]1C[C@H](N)[C@H](O)[C@H](C)O1 [DOXORUBICIN]
IC50 (Huh-7 [1]): 5.7 µM
IC50 (HepG2 [2]): 7.34 µM

SMILES: COc1cc(/C=C/C(=O)c2ccc(NC(=O)CSc3nc(N)cc(=O)[nH]3)cc2)cc(OC)c1
IC50 (Huh-7 [1]): 1.58 µM
IC50 (HepG2 [2]): 5.08 µM

SMILES: COc1ccc(/C=C/C(=O)c2ccc(NC(=O)CSc3nc(N)cc(=O)[nH]3)cc2)cc1
IC50 (Huh-7 [1]): 6.7 µM
IC50 (HepG2 [2]): 8.14 µM

SMILES: O=[N+]([O-])c1ccc2c(c1)S(=O)(=O)C=C2
Activity [3]: 9.43 ng/mL
IC50 at 48 h [4]: > 100 µM
IC50 (Huh-7 [1]): 7.89 µM
IC50 (HepG2 [2]): 8.35 µM
Activity [5]: 4.9 ng/mL

SMILES: Nc1cc(=O)[nH]c(SCC(=O)Nc2ccc(C(=O)/C=C/c3ccccc3Cl)cc2)n1
IC50 (Huh-7 [1]): 2.17 µM
IC50 (HepG2 [2]): 3.57 µM

SMILES: COc1cc(/C=C/C(=O)c2ccc(NC(=O)CSc3nc(N)cc(=O)[nH]3)cc2)cc(OC)c1OC
IC50 at 48 h [4]: 63.2 µM
Ratio IC50 (HepG2 [6]): 3.7
inhibition (HepG2 [7]): Active
IC50 (Huh-7 [1]): 0.55 µM
Ratio IC50 (HepG2 [8]): 4.2
IC50 (HepG2 [2]): 1.95 µM
inhibition [9]: Active
Ratio IC50 (Huh-7 [10]): 10.4
Activity (HepG2 [11]): inactive
inhibition [12]: inactive
fold change (FC) [13]: 4.8
Ratio IC50 (Huh-7 [14]): 14.3
selectivity ratio [15]: 115
Activity [16]: 2.28 ng/mL
Activity [17]: 3.19 ng/mL
selectivity ratio [18]: 32.4
fold change (FC) [19]: 4.5
Activity (HepG2 [20]): inactive

SMILES: Nc1cc(=O)[nH]c(SCC(=O)Nc2ccc(C(=O)/C=C/c3ccc(Cl)cc3Cl)cc2)n1
IC50 (Huh-7 [1]): 8.32 µM
IC50 (HepG2 [2]): 4.94 µM

Continued, in another order:

IC50 (Huh-7 [1]): 25 µM
IC50 (HepG2 [2]): 22.6 µM
SMILES: Nc1cc(=O)[nH]c(SCC(=O)Nc2ccc(C(=O)/C=C/c3ccc(F)cc3)cc2)n1

IC50 (Huh-7 [1]): 2.44 µM
IC50 (HepG2 [2]): 2.58 µM
fold change (FC) [13]: 2.5
Activity [16]: 4.44 ng/mL
Activity [17]: 5.09 ng/mL
fold change (FC) [19]: 2.8
SMILES: Cc1ccc(/C=C/C(=O)c2ccc(NC(=O)CSc3nc(N)cc(=O)[nH]3)cc2)cc1
IC50 at 48 h [4]: 49.5 µM
selectivity ratio [15]: 20.3
selectivity ratio [18]: 19.2

IC50 (Huh-7 [1]): 23.1 µM
IC50 (HepG2 [2]): 31.1 µM
SMILES: CN(C)c1ccc(/C=C/C(=O)c2ccc(NC(=O)CSc3nc(N)cc(=O)[nH]3)cc2)cc1

IC50 (Huh-7 [1]): 7.27 µM
IC50 (HepG2 [2]): 11.2 µM
SMILES: Nc1cc(=O)[nH]c(SCC(=O)Nc2ccc(C(=O)/C=C/c3ccc(Cl)cc3)cc2)n1
